Counter-ions that a name gives are not always drawn. Like-named read-outs stand apart in the source and are kept apart here.

The source of these data is patent US6448269B1 (Eli Lilly and Company, priority 1993, dated 2002).

The target in one assay is T1, GPIIb-IIIa (Homo sapiens, UniProt P05106+P08514).
T1 construct: Purified platelet GPIIb-IIIa receptor was prepared as described by Fitzgerald; from tissue; host or cells: platelets
T1 sequence (P08514 32-887 limits assumed): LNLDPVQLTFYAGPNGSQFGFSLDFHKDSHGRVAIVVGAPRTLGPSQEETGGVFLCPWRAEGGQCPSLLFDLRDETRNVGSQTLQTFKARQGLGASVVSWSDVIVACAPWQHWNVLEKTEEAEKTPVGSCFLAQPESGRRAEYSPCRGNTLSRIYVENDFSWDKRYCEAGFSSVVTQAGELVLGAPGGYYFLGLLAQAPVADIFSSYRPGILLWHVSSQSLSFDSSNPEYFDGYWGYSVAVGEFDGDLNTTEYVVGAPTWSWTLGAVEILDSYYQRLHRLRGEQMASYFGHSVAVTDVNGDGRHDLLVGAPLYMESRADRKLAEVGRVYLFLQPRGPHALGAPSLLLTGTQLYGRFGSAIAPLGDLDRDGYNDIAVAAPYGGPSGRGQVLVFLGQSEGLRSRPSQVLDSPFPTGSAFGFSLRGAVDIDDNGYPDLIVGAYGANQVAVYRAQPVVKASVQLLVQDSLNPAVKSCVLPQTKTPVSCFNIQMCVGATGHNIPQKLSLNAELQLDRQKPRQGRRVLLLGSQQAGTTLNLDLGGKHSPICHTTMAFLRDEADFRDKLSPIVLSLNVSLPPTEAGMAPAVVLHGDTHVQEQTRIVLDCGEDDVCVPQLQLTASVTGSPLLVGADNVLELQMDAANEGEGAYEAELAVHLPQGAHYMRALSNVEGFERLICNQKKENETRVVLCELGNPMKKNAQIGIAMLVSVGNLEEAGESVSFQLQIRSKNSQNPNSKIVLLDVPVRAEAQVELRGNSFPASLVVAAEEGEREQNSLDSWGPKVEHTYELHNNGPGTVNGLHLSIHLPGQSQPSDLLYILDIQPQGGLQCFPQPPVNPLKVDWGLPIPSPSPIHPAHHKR
T1 sequence (P05106 27-788): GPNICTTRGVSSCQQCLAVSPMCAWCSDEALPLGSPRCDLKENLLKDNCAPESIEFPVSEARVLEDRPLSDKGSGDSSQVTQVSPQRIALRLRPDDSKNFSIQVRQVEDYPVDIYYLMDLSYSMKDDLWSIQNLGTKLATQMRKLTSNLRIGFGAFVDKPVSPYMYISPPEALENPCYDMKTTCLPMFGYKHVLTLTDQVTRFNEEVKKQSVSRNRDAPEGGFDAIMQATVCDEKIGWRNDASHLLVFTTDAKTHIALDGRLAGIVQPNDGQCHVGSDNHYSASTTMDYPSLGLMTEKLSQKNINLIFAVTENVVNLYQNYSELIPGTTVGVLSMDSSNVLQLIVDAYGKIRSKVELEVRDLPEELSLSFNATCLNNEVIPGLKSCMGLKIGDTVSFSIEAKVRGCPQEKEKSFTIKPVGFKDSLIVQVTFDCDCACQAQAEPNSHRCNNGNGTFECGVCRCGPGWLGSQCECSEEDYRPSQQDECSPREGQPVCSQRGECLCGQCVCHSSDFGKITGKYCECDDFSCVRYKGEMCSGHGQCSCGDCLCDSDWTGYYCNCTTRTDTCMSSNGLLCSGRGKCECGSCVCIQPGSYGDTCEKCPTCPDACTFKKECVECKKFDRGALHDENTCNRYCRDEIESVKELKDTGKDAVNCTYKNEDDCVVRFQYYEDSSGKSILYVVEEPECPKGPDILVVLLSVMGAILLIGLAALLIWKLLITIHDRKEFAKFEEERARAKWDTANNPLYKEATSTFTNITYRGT
As to the kind of experiment: ELISA IIb-IIIa assay (fibrinogen binding to immobilized GPIIb-IIIa). Particulars: purified platelet GPIIb-IIIa receptor coated on ELISA plates; biotin-labeled fibrinogen 10 nM, 3 hours at 25° C. Summed up:
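Purified platelet GPIIb-IIIa was coated overnight at 4° C in Tris/NaCl/CaCl2 pH 7.4 and BSA-blocked. Biotinylated fibrinogen (10 nM final) was incubated with test compounds for 3 h at 25° C in Ca2+-containing binding buffer. Bound ligand was detected by anti-biotin–alkaline phosphatase with pNPP, OD 405.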
For orientation: An ELISA detects its analyte on a solid surface through an enzyme-linked reagent.

For assay [1], the system named is human platelet-rich plasma. Nature of the assay: Platelet aggregation assay (Aggregation-Human PRP/ADP). The conditions noted are these: human platelet-rich plasma incubated with compound 1 minute at 37° C., ADP-induced aggregation, read-out: Agg: Human PRP/ADP IC50uM. It counts as cell-based. A digest of the protocol: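 Citrated human PRP (~200-400,000 platelets/μl) from healthy volunteers, stirred, incubated with compound 1 min at 37° C. Aggregation was then triggered, most often by ADP 5 μM, or by 1 μg/ml collagen, 1 μM U46619 or 0.3 μM platelet activating factor, and read in an aggregometer with platelet-poor plasma as reference.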

For `N=C(N)c1ccc(C(=O)Nc2ccc3c(c2)CCC(CC(=O)O)C3=O)c(Cl)c1` (racemic) [Example 63, rac-(6-(N-(4-Aminoiminomethyl-2-chlorobenzoyl)amino)-1-oxo-1,2,3,4-tetrahydronaphthalen-2-yl)acetic Acid], the IC50 at GPIIb-IIIa was 9.4 nM; in assay [1] (1 min), 0.092 µM.

Turning to `CC1(CCC(=O)O)CCc2cc(NC(=O)c3ccc(C(=N)N)cc3)ccc2O1` (racemic) [Example 56, rac-3-(6-(N-(4-(Aminoiminomethyl)benzoyl)amino)-3,4-dihydro-2-methyl-2H-1-benzopyran-2-yl)propanoic Acid], the IC50 on GPIIb-IIIa came to 140 nM; in assay [1] (1 min) it was 0.9 µM.

Consider `N=C(N)c1ccc(C#Cc2ccc3c(c2)CCN(CC(=O)O)C3=O)cc1` [Example 2, 6-[[4-(Aminoiminomethyl)phenyl]ethynyl]-3,4-dihydro-1-oxo-2(1H)-isoquinoline Acetic Acid Trifluoroacetate], for which the IC50 on GPIIb-IIIa came out at 30 nM; in assay [1] (1 min), 0.52 µM.

`N=C(N)c1ccc(COc2ccc3c(c2)CCC(CC(=O)O)C3)cc1` (racemic) [Example 20, (+−)-6-[[(4-Aminoimidomethyl)phenyl]methoxy]-1,2,3,4-tetrahydronapthylene-2-acetic Acid Trifluoroacetate]: the IC50 was 300 nM at GPIIb-IIIa and 20 µM in assay [1] (1 min).

With `CCOCCCC(CC(=O)O)N1CCc2cc(OCc3ccc(C(=N)N)cc3)ccc2C1=O` (racemic) [Example 10, (+−)-6-[[4-(Aminoiminomethyl)phenyl]methoxy]-b-(3-ethoxypropyl)-3,4-dihydro-1-oxo-2(1H)-isoquinoline Propanoic Acid Trifluoroacetate], the IC50 was determined as 61 nM at GPIIb-IIIa and 0.47 µM in assay [1] (1 min).

For the compound `CCOC(=O)CC1CCc2cc(NC(=O)c3ccc(C(=N)N)cc3F)ccc2O1` (racemic) [Example 69, Ethyl rac-(6-(N-(4-(Aminoiminomethyl)-2-fluorobenzoyl)amino)-3,4-dihydro-2H-1-benzopyran-2-yl)acetate Hydrochloride], the IC50 is 9 nM on GPIIb-IIIa and 0.16 µM in assay [1] (1 min).

For `CC1(CCC(=O)O)C=Cc2cc(OCc3ccc(C(=N)N)cc3)ccc2O1` (racemic) [Example 53, rac-3-(6-(4-(Aminoiminomethyl)phenylmethoxy)-2-methyl-2H-1-benzopyran-2-yl)propanoic Acid Hydrochloride], the IC50 on GPIIb-IIIa came to 720 nM; in assay [1] (1 min), 21 µM.

In the case of `CCOC(=O)CCC1(C)CCc2cc(NC(=O)c3ccc(C(=N)N)cc3)ccc2O1` (racemic) [Example 50, Ethyl rac-3-(6-(N-(4-(Aminoiminomethyl)benzoyl)amino)-3,4-dihydro-2-methyl-2H-1-benzopyran-2-yl)propanoate Hydrochloride], the values for the IC50 (on GPIIb-IIIa; in assay [1] (1 min)) were 3930 nM and 100 µM, respectively.

As for `N=C(N)c1ccc(NC(=O)c2ccc3c(c2)CCC(OCC(=O)O)C3)cc1` (stereo not drawn) [Example 39], the IC50 at GPIIb-IIIa was determined as 31 nM; in assay [1] (1 min), 0.36 µM.

Turning to `N=C(N)c1ccc(COc2ccc3c(c2)CCN(C(CC(=O)O)C(=O)NCc2ccccc2)C3=O)cc1` (racemic) [Example 6, (+−)-6-[[4-(Aminoiminomethyl)phenyl]methoxy]-3,4-dihydro-1-oxo-beta-[[(phenylmethyl)amino]carbonyl]-2(1H)-isoquinoline Propanoic Acid Trifluoroacetate], the IC50 at GPIIb-IIIa was determined as 50 nM; in assay [1] (1 min), 0.7 µM.

In the case of `O=C(O)CN1CCc2cc(OCCCC3CCNCC3)ccc2C1` [Example 34], the IC50 on GPIIb-IIIa stood at 220 nM; in assay [1] (1 min) it was 2.3 µM.

Turning to `CCOC(=O)CC1CCc2cc(NC(=O)c3ccc(NC(=N)N)cc3)ccc2O1` (racemic) [Example 64, Ethyl rac-(6-(N-(4-((Aminoiminomethyl)amino)benzoyl)amino)-3,4-dihydro-2H-1-benzopyran-2-yl)acetate], the IC50 on GPIIb-IIIa came out at 800 nM; in assay [1] (1 min), 11 µM.

As for `N=C(N)c1ccc(COc2ccc3c(c2)CCN(C(CC(=O)O)C(=O)NCCC(=O)O)C3=O)cc1` (racemic) [Example 9, (+−)-6-[[4-(Aminoiminomethyl)phenyl]methoxy]-beta-[[(2-carboxyethyl)amino]carbonyl-3,4-dihydro-1-oxo-2(1H)-isoquinoline Propanoic Acid Trifluoroacetate], the IC50 on GPIIb-IIIa came to 85 nM; in assay [1] (1 min) it was 0.85 µM.

Turning to `N=C(N)c1cccc(CCc2ccc3c(c2)CCN(CC(=O)O)C3=O)c1` [Example 18, 6-[2-[3-(Aminoiminomethyl)phenyl]ethyl]-3,4-dihydro-1-oxo-2(1H)-isoquinoline Acetic Acid Trifluoroacetate], the values for the IC50 (at GPIIb-IIIa; in assay [1] (1 min)) were 11000 nM and > 100 µM, respectively.

As for `N=C(N)c1ccc(C(=O)Nc2ccc3c(c2)CCC(CCC(=O)O)C3)cc1` (stereo not drawn) [Example 38], the IC50 at GPIIb-IIIa turned out to be 240 nM; in assay [1] (1 min), 2.8 µM.

Regarding `COc1ccc(CCNC(=O)C(CC(=O)O)N2CCc3cc(OCc4ccc(C(=N)N)cc4)ccc3C2=O)cc1` (racemic) [Example 7, (+−)-6-[[4-(Aminoiminomethyl)phenyl]methoxy]-3,4-dihydro-1-oxo-beta-[[(4-methoxyphenyl Ethyl)amino]carbonyl]-2(1H)-isoquinoline Propanoic Acid Trifluoroacetate], the values for the IC50 (at GPIIb-IIIa; in assay [1] (1 min)) were 15 nM and 2 µM, respectively.

Take `N=C(N)c1ccc(CNC(=O)c2ccc3c(c2)CCN(CC(=O)O)C3=O)cc1` [Example 19, 6-[[(4-Aminoiminomethyl)phenyl]methylaminocarbonyl]-3,4-dihydro-1-oxo-2(1H)isoquinoline Acetic Acid Trifluoroacetate]: the results for the IC50 (at GPIIb-IIIa; in assay [1] (1 min)) were 13000 nM and > 100 µM, respectively.

Consider `CCCCNC(=N)c1ccc(C(=O)Nc2ccc3c(c2)CCC(CC(=O)O)O3)cc1` (racemic) [Example 84, rac-(6-(N-(4-((Butylamino)iminomethyl)benzoyl)amino)-3,4-dihydro-2H-1-benzopyran-2-yl)acetic Acid], for which the IC50 is 5.5 nM on GPIIb-IIIa and 0.084 µM in assay [1] (1 min).

With `CNC(=O)C(CC(=O)O)N1CCc2cc(OCc3ccc(C(=N)N)cc3)ccc2C1=O` (racemic) [Example 8, (+−)-6-[[4-(Aminoiminomethyl)phenyl]methoxy]-3,4-dihydro-beta-[(methylamino)carbonyl]-1-oxo-2(1H)-isoquinoline Propanoic Acid Trifluoroacetate], the IC50 was 80 nM on GPIIb-IIIa and 0.55 µM in assay [1] (1 min).

As for `N=C(N)c1ccc(C(=O)Nc2ccc3c(c2)CCC(CC(=O)O)=C3)cc1` [Example 31], the values for the IC50 (at GPIIb-IIIa; in assay [1] (1 min)) were 16 nM and 15 µM, respectively.

For “(+−)-6-[[4-(Aminoiminomethyl)phenyl]methoxy]-3,4-dihydro-1-oxo-beta-(1,4-dioxyhexyl)-2(1H)-isoquinoline Propionoic Acid Trifluoroacetate [Example 13]”, the IC50 was found to be 100 nM at GPIIb-IIIa and 0.68 µM in assay [1].
